Source: US9636418B2 (priority 2013, dated 2017)
Several values for one entry are separate records, joined by “and”; a condition that tells them apart may be missing. Equal values may be shown once. Read-outs that look alike come from different tables or passages of the source.

Experiments:
Assay in all cases: cell-based
[1] = target: hNav1.7 (Homo sapiens, UniProt Q15858); type: cell-based; settings: PatchXpress, read-out: PX hNav1.7 Tonic IC50
[2] = target: T1, hNav1.4 (Homo sapiens, UniProt P35499); settings: for IC50: PatchXpress, read-out: PX hNav1.4 Tonic IC50
T1 sequence (P35499 whole entry): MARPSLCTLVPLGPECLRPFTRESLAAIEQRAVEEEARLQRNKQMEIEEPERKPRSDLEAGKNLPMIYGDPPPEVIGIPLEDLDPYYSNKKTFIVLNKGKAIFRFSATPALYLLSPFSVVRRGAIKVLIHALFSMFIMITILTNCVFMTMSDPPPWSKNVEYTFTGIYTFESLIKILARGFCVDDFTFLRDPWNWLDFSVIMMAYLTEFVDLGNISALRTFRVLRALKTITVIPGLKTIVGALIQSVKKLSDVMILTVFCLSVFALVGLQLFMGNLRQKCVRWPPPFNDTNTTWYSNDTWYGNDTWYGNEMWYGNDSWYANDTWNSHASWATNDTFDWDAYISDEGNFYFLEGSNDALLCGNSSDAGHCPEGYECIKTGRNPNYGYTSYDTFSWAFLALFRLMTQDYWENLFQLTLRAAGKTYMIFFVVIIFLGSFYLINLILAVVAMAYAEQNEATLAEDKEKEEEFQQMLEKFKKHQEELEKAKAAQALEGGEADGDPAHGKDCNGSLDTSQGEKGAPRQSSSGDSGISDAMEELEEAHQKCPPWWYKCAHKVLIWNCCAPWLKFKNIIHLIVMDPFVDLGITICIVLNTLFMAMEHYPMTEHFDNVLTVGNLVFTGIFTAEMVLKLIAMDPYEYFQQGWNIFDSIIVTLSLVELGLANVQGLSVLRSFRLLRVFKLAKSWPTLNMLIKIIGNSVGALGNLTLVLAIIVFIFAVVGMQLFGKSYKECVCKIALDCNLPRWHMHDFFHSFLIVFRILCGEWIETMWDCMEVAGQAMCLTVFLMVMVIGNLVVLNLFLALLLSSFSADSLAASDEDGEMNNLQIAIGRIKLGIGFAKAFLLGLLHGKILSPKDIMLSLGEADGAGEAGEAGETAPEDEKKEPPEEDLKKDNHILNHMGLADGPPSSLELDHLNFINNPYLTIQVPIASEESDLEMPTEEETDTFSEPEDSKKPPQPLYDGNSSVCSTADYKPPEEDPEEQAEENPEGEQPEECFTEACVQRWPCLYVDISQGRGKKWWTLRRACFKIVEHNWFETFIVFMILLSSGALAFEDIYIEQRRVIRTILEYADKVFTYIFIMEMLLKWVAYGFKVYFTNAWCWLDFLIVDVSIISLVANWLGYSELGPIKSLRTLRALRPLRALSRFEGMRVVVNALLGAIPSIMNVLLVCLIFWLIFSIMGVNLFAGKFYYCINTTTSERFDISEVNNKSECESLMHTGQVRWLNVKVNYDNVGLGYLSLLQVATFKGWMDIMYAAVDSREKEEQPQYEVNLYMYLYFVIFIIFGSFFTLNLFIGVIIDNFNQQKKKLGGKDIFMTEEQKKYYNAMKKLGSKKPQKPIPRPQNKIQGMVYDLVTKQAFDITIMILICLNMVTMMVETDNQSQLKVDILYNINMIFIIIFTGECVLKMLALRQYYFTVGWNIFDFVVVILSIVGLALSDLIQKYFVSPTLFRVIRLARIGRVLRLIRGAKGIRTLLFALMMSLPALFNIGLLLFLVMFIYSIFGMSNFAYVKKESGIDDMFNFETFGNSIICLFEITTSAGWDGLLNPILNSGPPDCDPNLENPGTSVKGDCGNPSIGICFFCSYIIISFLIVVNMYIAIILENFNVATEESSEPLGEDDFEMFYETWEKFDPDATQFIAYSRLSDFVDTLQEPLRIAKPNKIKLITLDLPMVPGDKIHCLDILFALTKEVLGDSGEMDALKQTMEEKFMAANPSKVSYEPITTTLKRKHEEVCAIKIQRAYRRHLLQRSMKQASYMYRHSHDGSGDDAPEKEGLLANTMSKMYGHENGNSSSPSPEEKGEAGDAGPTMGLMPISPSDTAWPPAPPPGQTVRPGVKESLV

[3] = target: hNav1.5 (Homo sapiens, UniProt Q14524); settings: for IC50: PatchXpress, read-out: PX hNav1.5 Tonic IC50
Sequence of hNav1.5 (Q14524 whole entry): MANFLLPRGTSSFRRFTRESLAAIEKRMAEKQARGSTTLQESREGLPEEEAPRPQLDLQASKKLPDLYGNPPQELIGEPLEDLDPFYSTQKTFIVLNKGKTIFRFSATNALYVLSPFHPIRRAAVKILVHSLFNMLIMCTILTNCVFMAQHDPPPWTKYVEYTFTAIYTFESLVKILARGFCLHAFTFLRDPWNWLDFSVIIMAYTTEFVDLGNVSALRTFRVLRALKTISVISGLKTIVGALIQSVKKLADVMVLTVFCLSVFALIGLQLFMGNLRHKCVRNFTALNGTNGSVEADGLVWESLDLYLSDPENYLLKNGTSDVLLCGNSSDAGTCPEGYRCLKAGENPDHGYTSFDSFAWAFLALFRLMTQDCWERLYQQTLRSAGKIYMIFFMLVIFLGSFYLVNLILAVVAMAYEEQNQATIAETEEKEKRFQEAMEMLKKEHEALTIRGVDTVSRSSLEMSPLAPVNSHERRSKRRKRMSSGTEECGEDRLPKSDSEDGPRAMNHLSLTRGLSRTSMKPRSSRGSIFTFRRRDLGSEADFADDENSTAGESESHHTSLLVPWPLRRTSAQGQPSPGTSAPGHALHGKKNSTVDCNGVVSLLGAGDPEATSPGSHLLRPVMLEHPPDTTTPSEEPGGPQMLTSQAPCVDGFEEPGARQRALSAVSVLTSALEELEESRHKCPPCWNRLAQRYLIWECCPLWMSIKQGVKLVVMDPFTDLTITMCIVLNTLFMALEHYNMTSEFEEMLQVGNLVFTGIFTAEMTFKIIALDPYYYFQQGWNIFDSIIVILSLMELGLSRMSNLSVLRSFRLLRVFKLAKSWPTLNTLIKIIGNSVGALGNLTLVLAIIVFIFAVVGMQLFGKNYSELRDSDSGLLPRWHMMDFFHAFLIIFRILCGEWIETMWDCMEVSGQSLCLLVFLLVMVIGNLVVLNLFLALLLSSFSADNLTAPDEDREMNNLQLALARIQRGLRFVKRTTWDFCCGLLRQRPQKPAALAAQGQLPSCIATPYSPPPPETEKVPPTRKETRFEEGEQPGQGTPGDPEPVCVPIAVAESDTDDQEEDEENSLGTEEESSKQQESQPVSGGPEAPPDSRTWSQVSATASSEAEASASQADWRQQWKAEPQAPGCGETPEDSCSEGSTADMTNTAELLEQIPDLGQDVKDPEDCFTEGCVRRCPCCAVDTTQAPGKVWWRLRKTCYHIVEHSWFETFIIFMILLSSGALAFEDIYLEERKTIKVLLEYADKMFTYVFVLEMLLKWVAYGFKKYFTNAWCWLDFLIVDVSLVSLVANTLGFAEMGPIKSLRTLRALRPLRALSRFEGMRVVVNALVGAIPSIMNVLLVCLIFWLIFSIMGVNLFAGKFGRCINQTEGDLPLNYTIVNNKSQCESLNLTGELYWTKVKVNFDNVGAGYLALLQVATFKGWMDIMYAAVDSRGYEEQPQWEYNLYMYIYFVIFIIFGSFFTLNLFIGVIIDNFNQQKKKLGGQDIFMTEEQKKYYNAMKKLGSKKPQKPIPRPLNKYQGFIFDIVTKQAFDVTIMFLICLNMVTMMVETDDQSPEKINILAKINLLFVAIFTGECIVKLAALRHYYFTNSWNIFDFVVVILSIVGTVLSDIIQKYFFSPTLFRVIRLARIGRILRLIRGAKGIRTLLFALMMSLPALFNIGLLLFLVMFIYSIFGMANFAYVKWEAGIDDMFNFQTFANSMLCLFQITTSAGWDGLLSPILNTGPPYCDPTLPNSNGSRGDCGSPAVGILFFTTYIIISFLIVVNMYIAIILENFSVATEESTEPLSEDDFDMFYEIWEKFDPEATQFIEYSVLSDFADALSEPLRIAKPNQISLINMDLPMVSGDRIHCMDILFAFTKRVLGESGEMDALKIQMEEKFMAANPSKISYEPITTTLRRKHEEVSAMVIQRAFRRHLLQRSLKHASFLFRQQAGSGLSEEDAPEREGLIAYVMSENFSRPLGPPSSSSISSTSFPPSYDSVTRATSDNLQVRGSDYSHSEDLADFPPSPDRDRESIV

[4] = target: T1, hNav1.4; settings: ratio of IonWorks Quattro IC50 values
[5] = * = at high concentrations compound would wash off slowly or not at all

Row | Structure (SMILES) | IC50 [1, 5] | IC50 [2, 5] | Nav1.4/Nav1.7 ([2]; ratio of PX IC50 values) | IC50 [3, 5] | IC50 ([2]; tonic block) | IC50 ([3]; tonic block) | further results
1 | CC[C@H](C)[C@H](NC(=O)[C@@H](NC(=O)[C@H](CCCCN)NC(=O)[C@H](CCCNC(=N)N)NC(=O)[C@@H]1CSSC[C@@H]2NC(=O)[C@H](C)NC(=O)[C@H](CCCNC(=N)N)NC(=O)[C@H](CCCCN)NC(=O)[C@H](CO)NC(=O)[C@H](CC(=O)O)NC(=O)[C@@H]3CSSC[C@H](NC(=O)[C@H](C)NC(=O)[C@H](CC(C)C)NC(=O)CNC(=O)[C@H](CCC(=O)O)NC(=O)[C@H](CSSC[C@H](NC(=O)[C@@H](N)Cc4ccc(O)cc4)C(=O)N[C@@H](CCC(N)=O)C(=O)N[C@@H](CCCCN)C(=O)N[C@@H](Cc4c[nH]c5ccccc45)C(=O)N[C@@H](CCSC)C(=O)N[C@@H](Cc4c[nH]c5ccccc45)C(=O)N[C@@H]([C@@H](C)O)C(=O)N3)NC2=O)C(=O)N[C@@H](CCCCN)C(=O)N[C@@H](CC(C)C)C(=O)N[C@@H](Cc2c[nH]c3ccccc23)C(=O)N1)[C@@H](C)CC)C(N)=O [compound 17] | 12 nM | 100 nM | 8 | 2750 nM | – | – | –
2 | CC[C@H](C)[C@H](NC(=O)[C@@H](NC(=O)[C@H](CCCCN)NC(=O)[C@H](CCCNC(=N)N)NC(=O)[C@@H]1CSSC[C@@H]2NC(=O)[C@H](C)NC(=O)[C@H](CCCNC(=N)N)NC(=O)[C@H](CCCCN)NC(=O)[C@H](CO)NC(=O)[C@H](CC(=O)O)NC(=O)[C@@H]3CSSC[C@H](NC(=O)[C@H](CCCNC(=N)N)NC(=O)[C@H](CC(C)C)NC(=O)CNC(=O)[C@H](CCC(=O)O)NC(=O)[C@H](CSSC[C@H](NC(=O)[C@@H](N)Cc4ccc(O)cc4)C(=O)N[C@@H](CCC(N)=O)C(=O)N[C@@H](CCCCN)C(=O)N[C@@H](Cc4c[nH]c5ccccc45)C(=O)N[C@@H](CCSC)C(=O)N[C@@H](Cc4cccc5ccccc45)C(=O)N[C@@H]([C@@H](C)O)C(=O)N3)NC2=O)C(=O)N[C@@H](CCCCN)C(=O)N[C@@H](CC(C)C)C(=O)N[C@@H](Cc2c[nH]c3ccccc23)C(=O)N1)[C@@H](C)CC)C(N)=O [compound 30] | 0.4 nM | 0.9 nM | 2 | 1420 nM | – | – | –
3 | CC[C@H](C)[C@H](NC(=O)[C@@H](NC(=O)[C@H](CCCCN)NC(=O)[C@H](CCCNC(=N)N)NC(=O)[C@@H]1CSSC[C@@H]2NC(=O)[C@H](C)NC(=O)[C@H](CCCNC(=N)N)NC(=O)[C@H](CCCCN)NC(=O)[C@H](CO)NC(=O)[C@H](CC(=O)O)NC(=O)[C@@H]3CSSC[C@H](NC(=O)[C@H](CCCNC(=N)N)NC(=O)[C@H](CC(C)C)NC(=O)CNC(=O)[C@H](CCC(=O)O)NC(=O)[C@H](CSSC[C@H](NC(=O)[C@@H](N)CCC(=O)O)C(=O)N[C@@H](CCC(N)=O)C(=O)N[C@@H](CCCCN)C(=O)N[C@@H](Cc4c[nH]c5ccccc45)C(=O)N[C@@H](CCSC)C(=O)N[C@@H](Cc4c[nH]c5ccccc45)C(=O)N[C@@H]([C@@H](C)O)C(=O)N3)NC2=O)C(=O)N[C@@H](CCCCN)C(=O)N[C@@H](CC(C)C)C(=O)N[C@@H](Cc2c[nH]c3ccccc23)C(=O)N1)[C@@H](C)CC)C(N)=O [compound 49] | 0.3 nM | 8 nM | 27 | 6440 nM | – | – | –
4 | CC[C@H](C)[C@H](NC(=O)[C@H](CCC(=O)O)NC(=O)[C@H](CCCCN)NC(=O)[C@H](CCCNC(=N)N)NC(=O)[C@@H]1CSSC[C@@H]2NC(=O)[C@H](C)NC(=O)[C@H](CCCNC(=N)N)NC(=O)[C@H](CCCCN)NC(=O)[C@H](CO)NC(=O)[C@H](CC(=O)O)NC(=O)[C@@H]3CSSC[C@H](NC(=O)[C@H](CCCNC(=N)N)NC(=O)[C@H](CC(C)C)NC(=O)CNC(=O)[C@H](CCC(=O)O)NC(=O)[C@H](CSSC[C@H](NC(=O)[C@@H](N)Cc4ccc(O)cc4)C(=O)N[C@@H](CCC(N)=O)C(=O)N[C@@H](CCCCN)C(=O)N[C@@H](Cc4c[nH]c5ccccc45)C(=O)N[C@@H](CCSC)C(=O)N[C@@H](Cc4c[nH]c5ccccc45)C(=O)N[C@@H]([C@@H](C)O)C(=O)N3)NC2=O)C(=O)N[C@@H](CCCCN)C(=O)N[C@@H](CC(C)C)C(=O)N[C@@H](Cc2c[nH]c3ccccc23)C(=O)N1)C(N)=O [compound 69] | 1 nM | 300 nM | 300 | 8800 nM | – | – | Nav1.5/Nav1.7 ([3]; ratio of PX IC50 values): 8800
5 | CCCC[C@@H]1NC(=O)[C@H](Cc2c[nH]c3ccccc23)NC(=O)[C@H](CCCCN)NC(=O)[C@H](CCC(N)=O)NC(=O)[C@@H](NC(=O)[C@@H](N)Cc2ccc(O)cc2)CSSC[C@@H]2NC(=O)[C@@H]3CSSC[C@@H](C(=O)N[C@@H](CCCNC(=N)N)C(=O)N[C@@H](CCCCN)C(=O)N[C@H](C(=O)N[C@H](C(N)=O)[C@@H](C)CC)[C@@H](C)CC)NC(=O)[C@H](Cc4c[nH]c5ccccc45)NC(=O)[C@H](CC(C)C)NC(=O)[C@H](CCCCN)NC(=O)[C@H](CSSC[C@H](NC(=O)[C@H]([C@@H](C)O)NC(=O)[C@H](Cc4c[nH]c5ccccc45)NC1=O)C(=O)N[C@@H](CC(=O)O)C(=O)N[C@@H](Cc1cn(CCCOCCOCCOCCOCCOCCOCCOCCOCCOCCOCCN)nn1)C(=O)N[C@@H](CCCCN)C(=O)N[C@@H](CCCNC(=N)N)C(=O)N[C@@H](C)C(=O)N3)NC(=O)[C@H](CCCNC(=N)N)NC(=O)[C@H](CC(C)C)NC(=O)CNC(=O)[C@H](CCC(=O)O)NC2=O [compound 256] | – | – | 3 | – | – | – | Nav1.4/Nav1.7 [4]: 4; Nav1.5/Nav1.7 ([3]; ratio of PX IC50 values): 200
6 | C#CC[C@H](N)C(=O)N[C@@H](Cc1ccc(O)cc1)C(=O)N[C@H]1CSSC[C@@H]2NC(=O)[C@@H]3CSSC[C@@H](C(=O)N[C@@H](CCCNC(=N)N)C(=O)N[C@@H](CCCCN)C(=O)N[C@H](C(=O)N[C@H](C(N)=O)[C@@H](C)CC)[C@@H](C)CC)NC(=O)[C@H](Cc4c[nH]c5ccccc45)NC(=O)[C@H](CC(C)C)NC(=O)[C@H](CCCCN)NC(=O)[C@H](CSSC[C@H](NC(=O)[C@H]([C@@H](C)O)NC(=O)[C@H](Cc4c[nH]c5ccccc45)NC(=O)[C@H](CCCC)NC(=O)[C@H](Cc4c[nH]c5ccccc45)NC(=O)[C@H](CCCCN)NC(=O)[C@H](CCC(N)=O)NC1=O)C(=O)N[C@@H](CC(=O)O)C(=O)N[C@@H](CO)C(=O)N[C@@H](CCCCN)C(=O)N[C@@H](CCCNC(=N)N)C(=O)N[C@@H](C)C(=O)N3)NC(=O)[C@H](CCC(=O)O)NC(=O)[C@H](CC(C)C)NC(=O)CNC(=O)[C@H](CCC(=O)O)NC2=O [compound 297] | – | – | – | – | 804 nM | 1200 nM | IC50 ([1]; tonic block): 1.87 nM
7 | C#CC[C@H](N)C(=O)N[C@@H](Cc1ccc(O)cc1)C(=O)N[C@H]1CSSC[C@@H]2NC(=O)[C@@H]3CSSC[C@@H](C(=O)N[C@@H](CCCNC(=N)N)C(=O)N[C@@H](CCCCN)C(=O)N[C@H](C(=O)N[C@@H](Cc4c[nH]c5ccccc45)C(N)=O)[C@@H](C)CC)NC(=O)[C@H](Cc4c[nH]c5ccccc45)NC(=O)[C@H](CC(C)C)NC(=O)[C@H](CCCCN)NC(=O)[C@H](CSSC[C@H](NC(=O)[C@H]([C@@H](C)O)NC(=O)[C@H](Cc4c[nH]c5ccccc45)NC(=O)[C@H](Cc4ccccc4)NC(=O)[C@H](Cc4c[nH]c5ccccc45)NC(=O)[C@H](CCCCN)NC(=O)[C@H](CCC(N)=O)NC1=O)C(=O)N[C@@H](CC(=O)O)C(=O)N[C@@H](CO)C(=O)N[C@@H](CCCCN)C(=O)N[C@@H](CCCNC(=N)N)C(=O)N[C@@H](C)C(=O)N3)NC(=O)[C@H](CCC(=O)O)NC(=O)[C@H](CC(C)C)NC(=O)CNC(=O)[C@H](CCC(=O)O)NC2=O [compound 298] | – | – | – | – | 661 nM | 780 nM | IC50 ([1]; tonic block): 15 nM; Nav1.4/Nav1.7 ([2]; ratio of PX tonic IC50 values): 44; Nav1.5/Nav1.7 ([3]; ratio of PX tonic IC50 values): 52
8 | C#CC[C@H](N)C(=O)NCCCC[C@@H]1NC(=O)[C@H](CCCNC(=N)N)NC(=O)[C@H](CCCCN)NC(=O)[C@H](CO)NC(=O)[C@H](CC(=O)O)NC(=O)[C@@H]2CSSC[C@@H]3NC(=O)[C@H](CCCNC(=N)N)NC(=O)[C@H](CC(C)C)NC(=O)CNC(=O)[C@H](CCC(=O)O)NC(=O)[C@H](CSSC[C@H](NC(=O)[C@H](Cc4ccc(O)cc4)NC(=O)[C@@H](N)CC#N)C(=O)N[C@@H](CCC(N)=O)C(=O)N[C@@H](CCCCN)C(=O)N[C@@H](Cc4c[nH]c5ccccc45)C(=O)N[C@@H](CCCC)C(=O)N[C@@H](Cc4c[nH]c5ccccc45)C(=O)N[C@@H]([C@@H](C)O)C(=O)N2)NC(=O)[C@H](CSSC[C@@H](C(=O)N[C@@H](CCCNC(=N)N)C(=O)N[C@@H](CCCCN)C(=O)N[C@@H](CCC(=O)O)C(=O)N[C@H](C(N)=O)[C@@H](C)CC)NC(=O)[C@H](Cc2c[nH]c4ccccc24)NC(=O)[C@H](CC(C)C)NC(=O)[C@H](CCCCN)NC3=O)NC1=O [compound 392] | – | – | – | – | 86.1 nM and 124 nM | 920 nM and 1450 nM and 2160 nM | –
9 | C#CC[C@@H]1NC(=O)[C@@H]2CSSC[C@H](NC(=O)[C@H](Cc3ccc(O)cc3)NC(=O)[C@@H](N)CC#N)C(=O)N[C@@H](CCC(N)=O)C(=O)N[C@@H](CCCCN)C(=O)N[C@@H](Cc3c[nH]c4ccccc34)C(=O)N[C@@H](CCCC)C(=O)N[C@@H](Cc3c[nH]c4ccccc34)C(=O)N[C@@H]([C@@H](C)O)C(=O)N[C@H]3CSSC[C@H](NC(=O)[C@H](CCCNC(=N)N)NC(=O)[C@H](CC(C)C)NC(=O)CNC1=O)C(=O)N[C@@H](CCCCN)C(=O)N[C@@H](CC(C)C)C(=O)N[C@@H](Cc1c[nH]c4ccccc14)C(=O)N[C@H](C(=O)N[C@@H](CCCNC(=N)N)C(=O)N[C@@H](CCCCN)C(=O)N[C@@H](CCC(=O)O)C(=O)N[C@H](C(N)=O)[C@@H](C)CC)CSSC[C@H](NC(=O)[C@H](C)NC(=O)[C@H](CCCNC(=N)N)NC(=O)[C@H](CCCCN)NC(=O)[C@H](CO)NC(=O)[C@H](CC(=O)O)NC3=O)C(=O)N2 [compound 395] | – | – | – | – | 62.5 nM and 212 nM | 710 nM | –
